Measured values as given in paper PMC6599797, “Functional characterization of three flavonoid glycosyltransferases from Andrographis paniculata” (Royal Society Open Science, 2019).

What was measured:
Type in all cases: biochemical
ApUFGT2 [1] = target: T1, ApUFGT2 (Andrographis paniculata, UniProt A0A8E3S624); test: UPLC / Q-TOF-MS conversion assay; conditions: UDP-glucose 3200 µM, aglycone 320 µM; Tris-HCl pH 8.0, 40 °C, 6 h
T1 construct: gene UGT8
T1 sequence (A0A8E3S624 1-479): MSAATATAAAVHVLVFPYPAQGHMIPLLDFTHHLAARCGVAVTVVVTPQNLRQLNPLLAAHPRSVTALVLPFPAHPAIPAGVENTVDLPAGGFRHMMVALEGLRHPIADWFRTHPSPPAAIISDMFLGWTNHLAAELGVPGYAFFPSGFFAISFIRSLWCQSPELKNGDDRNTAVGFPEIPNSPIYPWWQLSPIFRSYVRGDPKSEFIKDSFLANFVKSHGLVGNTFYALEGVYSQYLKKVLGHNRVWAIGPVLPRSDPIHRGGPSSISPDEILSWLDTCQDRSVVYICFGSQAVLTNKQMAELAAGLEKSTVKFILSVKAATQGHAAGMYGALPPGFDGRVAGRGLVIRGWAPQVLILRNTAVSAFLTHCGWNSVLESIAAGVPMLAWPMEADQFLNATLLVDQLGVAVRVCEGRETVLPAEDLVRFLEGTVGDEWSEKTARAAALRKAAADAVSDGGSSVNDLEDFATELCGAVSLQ

ApUFGT1 [2] = target: T2, ApUFGT1 (Andrographis paniculata, UniProt A0A8E3MB50); test: UPLC / Q-TOF-MS conversion assay; conditions: UDP-glucose 3200 µM, aglycone 320 µM; Tris-HCl pH 8.0, 40 °C, 6 h
T2 construct: gene UGT2
T2 sequence (A0A8E3MB50 1-485): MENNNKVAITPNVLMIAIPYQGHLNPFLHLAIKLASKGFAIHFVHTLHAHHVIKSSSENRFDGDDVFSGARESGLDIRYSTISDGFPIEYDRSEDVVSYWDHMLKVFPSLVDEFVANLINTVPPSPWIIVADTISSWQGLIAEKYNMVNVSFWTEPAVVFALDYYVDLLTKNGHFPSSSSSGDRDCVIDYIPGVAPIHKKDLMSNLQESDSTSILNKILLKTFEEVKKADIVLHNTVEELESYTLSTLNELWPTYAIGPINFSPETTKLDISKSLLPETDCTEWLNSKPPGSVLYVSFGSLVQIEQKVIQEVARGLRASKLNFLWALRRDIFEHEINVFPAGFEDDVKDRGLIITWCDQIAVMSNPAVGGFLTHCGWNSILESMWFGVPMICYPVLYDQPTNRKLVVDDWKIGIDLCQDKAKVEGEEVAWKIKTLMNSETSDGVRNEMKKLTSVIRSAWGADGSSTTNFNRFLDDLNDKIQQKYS

ApUFGT3 [3] = target: T3, ApUFGT3 (Andrographis paniculata, UniProt A0A8E3S6A8); test: UPLC / Q-TOF-MS conversion assay; conditions: UDP-glucose 3200 µM, aglycone 320 µM; Tris-HCl pH 8.0, 40 °C, 6 h
T3 construct: gene UGT4
T3 sequence (A0A8E3S6A8 1-463): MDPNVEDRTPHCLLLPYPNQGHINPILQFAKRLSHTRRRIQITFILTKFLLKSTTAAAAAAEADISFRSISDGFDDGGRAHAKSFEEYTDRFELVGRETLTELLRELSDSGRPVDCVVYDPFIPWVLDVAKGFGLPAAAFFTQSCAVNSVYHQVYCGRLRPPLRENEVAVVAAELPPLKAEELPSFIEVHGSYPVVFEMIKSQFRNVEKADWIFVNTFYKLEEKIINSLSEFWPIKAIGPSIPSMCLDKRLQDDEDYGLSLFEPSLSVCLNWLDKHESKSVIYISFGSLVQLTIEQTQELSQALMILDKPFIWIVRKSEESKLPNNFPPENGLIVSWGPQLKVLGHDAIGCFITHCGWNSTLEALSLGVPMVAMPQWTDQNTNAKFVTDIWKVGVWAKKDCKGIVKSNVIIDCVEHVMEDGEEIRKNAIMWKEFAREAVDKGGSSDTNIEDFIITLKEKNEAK

ApUFGT2 [4] = target: T1, ApUFGT2; test: UPLC conversion assay; conditions: UDP-glucose donor; 50 mM Tris-HCl pH 8.0, 40 °C
ApUFGT3 [5] = target: T3, ApUFGT3; test: UPLC conversion assay; conditions: UDP-glucose donor; 50 mM Tris-HCl pH 8.0, 40 °C
ApUFGT1 [6] = target: T2, ApUFGT1; test: UPLC conversion assay; conditions: UDP-glucose donor; 50 mM Tris-HCl pH 8.0, 40 °C

Structure (SMILES) | UPLC / Q-TOF-MS conversion assay (ApUFGT2 [1]) | UPLC / Q-TOF-MS conversion assay (ApUFGT1 [2]) | UPLC / Q-TOF-MS conversion assay (ApUFGT3 [3]) | UPLC conversion assay (ApUFGT2 [4]) | UPLC conversion assay (ApUFGT3 [5]) | UPLC conversion assay (ApUFGT1 [6])
O=c1cc(-c2ccc(O)cc2)oc2cc(O)cc(O)c12 [compound 1, apigenin] | Product peak 1c was confirmed as apigetrin, namely, apigenin 7-O-glucoside | Product peak 1c was confirmed as apigetrin, namely, apigenin 7-O-glucoside | Product peak 1c was confirmed as apigetrin, namely, apigenin 7-O-glucoside | – | – | –
COc1c(O)cc(O)c2c(=O)cc(-c3ccccc3)oc12 [wogonin] | – | – | – | glycosylation of wogonin catalysed by ApUFGTs | glycosylation of wogonin catalysed by ApUFGTs | glycosylation of wogonin catalysed by ApUFGTs
